Measurements: PMC10999543, “Identification of kinase modulators as host-directed therapeutics against intracellular methicillin-resistant Staphylococcus aureus” (Frontiers in Cellular and Infection Microbiology, 2024)
Like-named read-outs stand apart in the source and are kept apart here.

Legend:
HeLa cells = assay: Compound screen by flow cytometry: HeLa cell count as surrogate readout of cell viability (z-scoreHeLa); assay type: cell-based, human; details: for z-scoreHeLa mean: mean of 3 replicates; for z-scoreHeLa rep 1 / cell count rep 1: replicate 1; for z-scoreHeLa rep 2 / cell count rep 2: replicate 2; for z-scoreHeLa rep 3 / cell count rep 3: replicate 3
How it was run: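 HeLa cells were infected with GFP-MRSA (mean MOI 6.8 ± 4.6) for 1 h, and extracellular bacteria were killed with 30 µg/ml gentamicin. Cells were then incubated overnight with kinase inhibitors in 5 µg/ml gentamicin, in triplicate against DMSO controls. Flow-cytometric cell count served as a viability surrogate, expressed as a plate z-score.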

intracellular MRSA = assay type: cell-based, Staphylococcus aureus; details: for z-scoreMRSA+ mean: mean of 3 replicates; for z-scoreMRSA+ rep 1 / %GFP+ rep 1: replicate 1; for z-scoreMRSA+ rep 2 / %GFP+ rep 2: replicate 2; for z-scoreMRSA+ rep 3 / %GFP+ rep 3: replicate 3
How it was run: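 HeLa cells infected with GFP-MRSA (MOI ~6.8), gentamicin-cleared, then incubated overnight at 37°C with inhibitors plus 5 µg/ml gentamicin; DMSO as negative control, triplicates. Flow cytometry gave % GFP-positive cells and cell count (viability surrogate); hits by plate z-score (MRSA ≤ -2, HeLa count ≥ -3).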

[1] = PKIS compound screen, Yes/No call
[2] = PKIS compounds raw data, HeLa cell count
[3] = PKIS compound screen, Yes/No call (effect without cell death)
[4] = PKIS compounds raw data, MRSA-infected HeLa cells
[5] = PKIS compound screen raw data, HeLa cell count
[6] = compound screen, HeLa cell count
[7] = PKIS compound screen raw data, MRSA-infected HeLa cells
[8] = Yes/No: effect without cell death
[9] = compound screen, MRSA-infected HeLa cells

| Compound | cell death (HeLa cells; [1]) | z-scoreHeLa mean (HeLa cells; PKIS compound screen) | z-scoreHeLa rep 1 (HeLa cells; PKIS compound screen) | cell count rep 1 (HeLa cells; [2]) | cell count rep 2 (HeLa cells; [2]) | cell count rep 3 (HeLa cells; [2]) | %GFP+ rep 1 (intracellular MRSA; [4]) [%] | %GFP+ rep 2 (intracellular MRSA; [4]) [%] | %GFP+ rep 3 (intracellular MRSA; [4]) [%] | cell death (HeLa cells; Yes/No call from z-scoreHeLa) | z-scoreHeLa mean (HeLa cells; [6]) | z-scoreHeLa rep 1 (HeLa cells; [6]) | z-scoreHeLa rep 2 (HeLa cells; [6]) | z-scoreHeLa rep 3 (HeLa cells; [6]) | effect (intracellular MRSA; Yes/No call from z-scoreMRSA+) | hit (intracellular MRSA; [8]) | z-scoreMRSA+ mean (intracellular MRSA; [9]) | z-scoreMRSA+ rep 1 (intracellular MRSA; [9]) | z-scoreMRSA+ rep 2 (intracellular MRSA; [9]) | z-scoreMRSA+ rep 3 (intracellular MRSA; [9]) | also measured |
| --- | --- | --- | --- | --- | --- | --- | --- | --- | --- | --- | --- | --- | --- | --- | --- | --- | --- | --- | --- | --- | --- |
| c1ccc(Cc2nc3ccc(Nc4ncnc5ccccc45)cc3[nH]2)cc1 [GR269666A] | No | 0.30 | 0.10 | 4886 | 4795 | 7830 | 13.4 | 15.8 | 13.5 |  |  |  |  |  |  |  |  |  |  |  | z-scoreHeLa rep 2 (HeLa cells; PKIS compound screen): 0.40; z-scoreHeLa rep 3 (HeLa cells; PKIS compound screen): 0.42; effect (intracellular MRSA; [1]): No; hit (intracellular MRSA; [3]): No; z-scoreMRSA+ mean (intracellular MRSA; PKIS compound screen): 0.046; z-scoreMRSA+ rep 1 (intracellular MRSA; PKIS compound screen): 0.07; z-scoreMRSA+ rep 2 (intracellular MRSA; PKIS compound screen): 0.77; z-scoreMRSA+ rep 3 (intracellular MRSA; PKIS compound screen): -0.71 |
| Cc1c(O)cccc1Nc1ccnc2ccc(C(F)(F)F)cc12 [GW466413A] |  |  |  |  |  |  |  |  |  | No | -0.80 | -0.80 | -1.02 | -0.58 | No | No | -0.45 | -0.69 | 0.0454 | -0.69 | cell count rep 1 (HeLa cells; [5]): 3244; cell count rep 2 (HeLa cells; [5]): 2982; cell count rep 3 (HeLa cells; [5]): 4313; %GFP+ rep 1 (intracellular MRSA; [7]): 22.3%; %GFP+ rep 2 (intracellular MRSA; [7]): 22.8%; %GFP+ rep 3 (intracellular MRSA; [7]): 19.9% |
| Nc1nccc2scc(-c3ccc4c(c3)CCN4C(=O)Cc3ccccc3)c12 [GSK2576924A] |  |  |  |  |  |  |  |  |  | No | -1.02 | -0.97 | -0.95 | -1.13 | No | No | 0.22 | 0.05 | 0.41 | 0.21 | cell count rep 1 (HeLa cells; [5]): 3006; cell count rep 2 (HeLa cells; [5]): 3066; cell count rep 3 (HeLa cells; [5]): 3447; %GFP+ rep 1 (intracellular MRSA; [7]): 25.5%; %GFP+ rep 2 (intracellular MRSA; [7]): 24.3%; %GFP+ rep 3 (intracellular MRSA; [7]): 22.9% |
| N#Cc1ccc(CCNc2nccc(-c3cccc(CN4CCNCC4)c3)n2)cc1 [GSK2137462A] | No | 0.08 | -0.12 | 5843 | 6203 | 5956 | 26.7 | 25.4 | 26.0 | No | 3.25 | 3.12 | 2.53 | 4.11 | No | No | -1.32 | -1.20 | -1.37 | -1.40 | cell count rep 1 (HeLa cells; [5]): 48589; cell count rep 2 (HeLa cells; [5]): 40019; cell count rep 3 (HeLa cells; [5]): 40009; z-scoreHeLa rep 2 (HeLa cells; PKIS compound screen): 0.13; z-scoreHeLa rep 3 (HeLa cells; PKIS compound screen): 0.23; %GFP+ rep 1 (intracellular MRSA; [7]): 14.3%; %GFP+ rep 2 (intracellular MRSA; [7]): 14.4%; %GFP+ rep 3 (intracellular MRSA; [7]): 16.1%; effect (intracellular MRSA; [1]): No; hit (intracellular MRSA; [3]): No; z-scoreMRSA+ mean (intracellular MRSA; PKIS compound screen): -0.14; z-scoreMRSA+ rep 1 (intracellular MRSA; PKIS compound screen): -0.07; z-scoreMRSA+ rep 2 (intracellular MRSA; PKIS compound screen): -0.12; z-scoreMRSA+ rep 3 (intracellular MRSA; PKIS compound screen): -0.24 |
| Cc1cc(Cl)cc2c1NC(=O)C2=NNc1ccc(S(N)(=O)=O)cc1 [GW279320X] | No | 1.27 | 0.91 | 5783 | 6163 | 10033 | 28.1 | 30.5 | 29.7 |  |  |  |  |  |  |  |  |  |  |  | z-scoreHeLa rep 2 (HeLa cells; PKIS compound screen): 1.43; z-scoreHeLa rep 3 (HeLa cells; PKIS compound screen): 1.47; effect (intracellular MRSA; [1]): No; hit (intracellular MRSA; [3]): No; z-scoreMRSA+ mean (intracellular MRSA; PKIS compound screen): 4.85; z-scoreMRSA+ rep 1 (intracellular MRSA; PKIS compound screen): 4.78; z-scoreMRSA+ rep 2 (intracellular MRSA; PKIS compound screen): 5.69; z-scoreMRSA+ rep 3 (intracellular MRSA; PKIS compound screen): 4.09 |
| Nc1nonc1-c1nc2cnccc2n1C1CCCCC1 [SB-734117] |  |  |  | 2677 | 2902 | 5031 | 14.7 | 14.0 | 13.2 | No | -1.28 | -1.90 | -1.03 | -0.92 | No | No | -0.0455 | 0.49 | 0.17 | -0.79 |  |
